Measurements as given in US20220169632A1, “METHODS AND MATERIALS FOR INCREASING OR MAINTAINING NICOTINAMIDE MONONUCLEOTIDE ADENYLYL TRANSFERASE-2 (NMNAT2) POLYPEPTIDE LEVELS” (University of Pittsburgh - Of the Commonwealth System of …, priority 2019, published 2022).

tested on: NMNAT2; test: NMNAT2-Hibit nano-luciferase activity in stably transfected U87MG cells, various concentrations, 24 hours; type: cell-based; conditions: U87MG cells stably transfected with NMNAT2-Hibit luc plasmid
Procedure: Selected compounds were tested in vitro. U87MG cells were stably transfected with NMNAT2-Hibit luc plasmid. Cells were treated with a test compound at various concentrations for 24 hours. Cells were then collected and assayed for nano-luciferase activity.

SMILES | E: compound efficacy for NMNAT2 activation (concentration giving >25% increase in NMNAT2 luciferase activity)
CC(Cc1ccco1)NC(=O)C1CCCc2c1c1ccccc1n2Cc1cccc(F)c1 (stereo not shown) [BC20377] | + (“+” >25% increase in NMNAT2 luciferase activity at >25 μM.)
Cc1ccccc1Cn1cc(CCCC(=O)N2CCN(C(=O)c3ccco3)CC2)c2ccccc21 [BC20158] | ++ (“++” >25% increase in NMNAT2 luciferase activity at >1 μM ≤25 μM.)
Cc1ccccc1Cn1cc(CCCC(=O)NC(C)Cc2ccco2)c2ccccc21 (stereo not shown) [BC20159] | ++ (“++” >25% increase in NMNAT2 luciferase activity at >1 μM ≤25 μM.)
COc1ccccc1CNC(=O)C1CCc2c(c3ccccc3n2Cc2cccc(F)c2)C1 (stereo not shown) [BC20225] | + (“+” >25% increase in NMNAT2 luciferase activity at >25 μM.)
Cc1ccc(C)c(Cn2c(C(F)F)c(CCC(=O)NCc3ccc(C)o3)c3ccccc32)c1 [BC20367] | ++ (“++” >25% increase in NMNAT2 luciferase activity at >1 μM ≤25 μM.)
Cc1cccc(Cn2cc(CCCC(=O)NCc3ccccc3F)c3ccccc32)c1 [BC20165] | +++ (“+++” >25% increase in NMNAT2 luciferase activity at ≤1 μM.)
Cc1c(C)n(Cc2ccccc2F)c2ccc(C(=O)NCc3ccccc3F)cc12 [BC20103] | +++ (“+++” >25% increase in NMNAT2 luciferase activity at ≤1 μM.)
COc1cccc(CNC(=O)[C@H]2C[C@@H]2c2cn(Cc3ccc(C)cc3)c3ccccc23)c1 (racemic) [BC20299] | + (“+” >25% increase in NMNAT2 luciferase activity at >25 μM.)
O=C1CC(c2cn(Cc3cccc(F)c3)c3ccccc23)CCN1Cc1cccc(F)c1 (stereo not shown) [BC20319] | + (“+” >25% increase in NMNAT2 luciferase activity at >25 μM.)
Cc1ccccc1CNC(=O)Cn1cc(C(=O)c2ccc(Cl)cc2)c2ccccc21 [BC20178] | ++ (“++” >25% increase in NMNAT2 luciferase activity at >1 μM ≤25 μM.)
Cc1ccc(CNC(=O)Cn2c3c(c4ccccc42)CC(C(=O)NCc2ccco2)CC3)o1 (stereo not shown) [BC20285] | ++ (“++” >25% increase in NMNAT2 luciferase activity at >1 μM ≤25 μM.)
Cc1cccc(NC(=O)N2CCc3c(c4ccccc4n3Cc3ccncc3)C2)c1C [BC20336] | + (“+” >25% increase in NMNAT2 luciferase activity at >25 μM.)
Cc1c(C)n(Cc2ccccc2F)c2ccc(C(=O)NCC3CCCO3)cc12 (stereo not shown) [BC20194] | + (“+” >25% increase in NMNAT2 luciferase activity at >25 μM.)
COc1cccc(CNC(=O)CCCc2cn(Cc3ccccc3F)c3ccccc23)c1 [BC20128] | ++ (“++” >25% increase in NMNAT2 luciferase activity at >1 μM ≤25 μM.)
Cc1c(C)n(Cc2cccc(F)c2)c2ccc(C(=O)N3CCN(C(=O)c4ccco4)CC3)cc12 [BC20117] | ++ (“++” >25% increase in NMNAT2 luciferase activity at >1 μM ≤25 μM.)
Cc1c(C)n(Cc2ccccc2F)c2ccc(C(=O)NCc3cccc(F)c3)cc12 [BC20104] | ++ (“++” >25% increase in NMNAT2 luciferase activity at >1 μM ≤25 μM.)
O=C(CCCc1cn(Cc2ccccc2F)c2ccccc12)NCc1ccccc1F [BC20210] | + (“+” >25% increase in NMNAT2 luciferase activity at >25 μM.)
Cc1cccc(Cn2cc(CCCC(=O)NCCc3ccccc3)c3ccccc32)c1 [BC20172] | ++ (“++” >25% increase in NMNAT2 luciferase activity at >1 μM ≤25 μM.)
COc1cccc(CNC(=O)CCCc2cn(Cc3cccc(F)c3)c3ccccc23)c1 [BC20143] | ++ (“++” >25% increase in NMNAT2 luciferase activity at >1 μM ≤25 μM.)
Cc1c(C)n(Cc2ccccc2F)c2ccc(C(=O)NCc3ccncc3)cc12 [BC20197] | ++ (“++” >25% increase in NMNAT2 luciferase activity at >1 μM ≤25 μM.)
O=C(Cn1cc2c3c(cccc31)C(=O)N(Cc1cccc(F)c1)CC2)NCc1cccc(F)c1 [BC20355] | ++ (“++” >25% increase in NMNAT2 luciferase activity at >1 μM ≤25 μM.)
CCCCN(CC)Cc1ccc(CNC(=O)CCCc2cn(Cc3ccccc3F)c3ccccc23)o1 [BC20211] | +++ (“+++” >25% increase in NMNAT2 luciferase activity at ≤1 μM.)

SMILES | E: compound efficacy for NMNAT2 activation (concentration giving >25% increase in NMNAT2 luciferase activity)
Cc1ccc(C)c(Cn2c(C)c([C@H]3C[C@@H]3C(=O)NCc3cccc(F)c3)c3ccccc32)c1 (racemic) [BC20302] | + (“+” >25% increase in NMNAT2 luciferase activity at >25 μM.)
Cc1ccc(C)c(Cn2cc([C@H]3C[C@@H]3C(=O)NCc3ccco3)c3ccccc32)c1 (racemic) [BC20344] | + (“+” >25% increase in NMNAT2 luciferase activity at >25 μM.)
O=C(CCCc1cn(Cc2cccc(F)c2)c2ccccc12)N1CCN(C(=O)c2ccco2)CC1 [BC20144] | ++ (“++” >25% increase in NMNAT2 luciferase activity at >1 μM ≤25 μM.)
Cc1ccc(C)c(Cn2c(C(F)F)c(C3CC(=O)Nc4cccc(C)c43)c3ccccc32)c1 (stereo not shown) [BC20405] | ++ (“++” >25% increase in NMNAT2 luciferase activity at >1 μM ≤25 μM.)
Cc1ccc(C)c(Cn2c3c(c4ccccc42)CC(C(=O)NCc2cccnc2)CC3)c1 (stereo not shown) [BC20189] | ++ (“++” >25% increase in NMNAT2 luciferase activity at >1 μM ≤25 μM.)
Cc1cccc(CNC(=O)C2CCc3c(c4ccccc4n3Cc3cccc(F)c3)C2)c1 (stereo not shown) [BC20224] | + (“+” >25% increase in NMNAT2 luciferase activity at >25 μM.)
O=C(Cn1cc(C(=O)c2ccc(Cl)cc2)c2ccccc21)NCc1ccncc1 [BC20216] | ++ (“++” >25% increase in NMNAT2 luciferase activity at >1 μM ≤25 μM.)
Cc1ccccc1CNC(=O)CCCc1cn(Cc2ccccc2C)c2ccccc12 [BC20153] | ++ (“++” >25% increase in NMNAT2 luciferase activity at >1 μM ≤25 μM.)
COc1ccccc1CNC(=O)c1ccc2c(c1)c(C)c(C)n2Cc1cccc(F)c1 [BC20115] | ++ (“++” >25% increase in NMNAT2 luciferase activity at >1 μM ≤25 μM.)
Cc1ccc(C)c(Cn2cc([C@H]3C[C@@H]3C(=O)NCc3cccnc3)c3ccccc32)c1 (racemic) [BC20351] | + (“+” >25% increase in NMNAT2 luciferase activity at >25 μM.)
Cc1c(C)n(Cc2cccc(F)c2)c2ccc(C(=O)NCc3cccnc3)cc12 [BC20265] | ++ (“++” >25% increase in NMNAT2 luciferase activity at >1 μM ≤25 μM.)
Cc1c(C)n(Cc2ccccc2F)c2ccc(C(=O)NCc3cccnc3)cc12 [BC20108] | +++ (“+++” >25% increase in NMNAT2 luciferase activity at ≤1 μM.)
COc1cccc(CNC(=O)[C@H]2C[C@@H]2c2cn(Cc3cc(C)ccc3C)c3ccccc23)c1 (racemic) [BC20350] | + (“+” >25% increase in NMNAT2 luciferase activity at >25 μM.)
O=C(c1ccco1)N1CCN(C(=O)C2CCCc3c2c2ccccc2n3Cc2cccc(F)c2)CC1 (stereo not shown) [BC20376] | + (“+” >25% increase in NMNAT2 luciferase activity at >25 μM.)
Cc1ccc(C)c(Cn2cc([C@H]3C[C@@H]3C(=O)NC(C)Cc3ccco3)c3ccccc32)c1 (mixture of isomers) [BC20363] | ++ (“++” >25% increase in NMNAT2 luciferase activity at >1 μM ≤25 μM.)
COc1ccccc1CNC(=O)[C@H]1C[C@@H]1c1cn(Cc2ccc(C)cc2)c2ccccc12 (racemic) [BC20298] | + (“+” >25% increase in NMNAT2 luciferase activity at >25 μM.)
Cc1ccccc1CNC(=O)c1ccc2c(c1)c(C)c(C)n2Cc1ccccc1F [BC20105] | ++ (“++” >25% increase in NMNAT2 luciferase activity at >1 μM ≤25 μM.)
O=C(CCCc1cn(Cc2cccc(F)c2)c2ccccc12)NCC1CCCO1 (stereo not shown) [BC20137] | ++ (“++” >25% increase in NMNAT2 luciferase activity at >1 μM ≤25 μM.)
O=C(C1CCCc2c1c1ccccc1n2Cc1cccc(F)c1)N(CCCN1CCOCC1)Cc1ccco1 (stereo not shown) [BC20382] | ++ (“++” >25% increase in NMNAT2 luciferase activity at >1 μM ≤25 μM.)
Cc1cccc(CNC(=O)Cn2cc(C(=O)c3ccc(Cl)cc3)c3ccccc32)c1 [BC20179] | ++ (“++” >25% increase in NMNAT2 luciferase activity at >1 μM ≤25 μM.)
Cc1ccc(CNC(=O)C2CCc3c(c4ccccc4n3Cc3cccc(F)c3)C2)o1 (stereo not shown) [BC20221] | + (“+” >25% increase in NMNAT2 luciferase activity at >25 μM.)
